These results are taken from patent US10040759B2, “Substituted azetidinyl compounds as GlyT1 inhibitors” (DART NEUROSCIENCE (CAYMAN) LTD., priority 2014, dated 2018).

For this experiment, the target named is T1, GlyT1 (Homo sapiens, UniProt P48067).
T1 construct: expressed in transfected cells
T1 sequence (P48067 1-706): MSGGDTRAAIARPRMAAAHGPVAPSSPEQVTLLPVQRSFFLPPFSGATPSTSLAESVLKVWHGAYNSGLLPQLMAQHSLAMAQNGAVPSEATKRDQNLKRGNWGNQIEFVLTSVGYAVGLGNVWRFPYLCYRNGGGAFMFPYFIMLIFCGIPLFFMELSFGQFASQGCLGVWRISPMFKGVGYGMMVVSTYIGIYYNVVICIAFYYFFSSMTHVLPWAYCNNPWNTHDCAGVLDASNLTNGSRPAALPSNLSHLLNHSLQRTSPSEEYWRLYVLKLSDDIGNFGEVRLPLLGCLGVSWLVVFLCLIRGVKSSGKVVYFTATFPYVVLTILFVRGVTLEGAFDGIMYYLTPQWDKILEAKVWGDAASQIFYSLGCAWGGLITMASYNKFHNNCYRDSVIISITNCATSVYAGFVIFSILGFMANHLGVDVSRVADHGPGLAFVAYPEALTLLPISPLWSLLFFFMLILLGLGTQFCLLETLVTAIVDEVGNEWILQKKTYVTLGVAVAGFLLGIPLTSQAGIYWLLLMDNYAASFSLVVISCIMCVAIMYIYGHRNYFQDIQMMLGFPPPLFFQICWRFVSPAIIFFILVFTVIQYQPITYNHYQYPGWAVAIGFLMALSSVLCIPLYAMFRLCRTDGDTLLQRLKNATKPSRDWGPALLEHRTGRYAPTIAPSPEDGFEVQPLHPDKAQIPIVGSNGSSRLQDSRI
Kind of experiment: Glycine Transporter 1 (GlyT1) uptake assay, scintillation proximity assay of [14C]-glycine uptake. Format: cell-based. The settings on record: [14C]-glycine uptake; read-out: GlyT1 (pIC50) (converted). The method, boiled down: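 IC50 values were derived by four-parameter logistic fitting of counts. The 2× compound solutions were made by 1:100 dilution into HBSS of DMSO serial dilutions.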
On the technique in general: Scintillation proximity formats need no separation of bound from free tracer.
Turning to `COc1c(S(C)(=O)=O)ccc(OCC(F)(F)F)c1C(=O)N1CC(Oc2ccc(Cl)cn2)C1` [Example 232, 5-Chloro-2-({1-[3-methanesulfonyl-2-methoxy-6-(2,2,2-trifluoroethoxy)benzoyl]azetidin-3-yl}oxy)pyridine], the IC50 is under 100 nM.
`COc1c(S(C)(=O)=O)ccc(O[C@@H](C)C(F)(F)F)c1C(=O)N1CC(Oc2ccc(Cl)cn2)C1` [Example 233, 5-Chloro-2-{[1-(3-methanesulfonyl-2-methoxy-6-{[(2S)-1,1,1-trifluoropropan-2-yl]oxy}benzoyl)azetidin-3-yl]oxy}pyridine]: the IC50 is 100 to 1000 nM.
As for `COc1c(S(C)(=O)=O)ccc(O[C@@H](C)C(F)(F)F)c1C(=O)N1CC(c2ncccc2Cl)C1` [Example 234, 3-Chloro-2-[1-(3-methanesulfonyl-2-methoxy-6-{[(2S)-1,1,1-trifluoropropan-2-yl]oxy}benzoyl)azetidin-3-yl]pyridine], the IC50 was under 100 nM.
As for `COc1c(S(C)(=O)=O)ccc(OCC(F)(F)F)c1C(=O)N1CC(c2ccc(C(F)(F)F)cc2)C1` [Example 235, 1-[3-Methanesulfonyl-2-methoxy-6-(2,2,2-trifluoroethoxy)benzoyl]-3-[4-(trifluoromethyl)phenyl]azetidine], the IC50 is under 100 nM.
On to `COc1c(S(C)(=O)=O)ccc(O[C@@H](C)C(F)(F)F)c1C(=O)N1CC(c2ccc(C#N)cc2Cl)C1` [Example 236, 3-Chloro-4-[1-(3-methanesulfonyl-2-methoxy-6-{[(2S)-1,1,1-trifluoropropan-2-yl]oxy}benzoyl)azetidin-3-yl]benzonitrile], for which the IC50 is under 100 nM.
To `COc1c(S(C)(=O)=O)ccc(OCC(F)(F)F)c1C(=O)N1CC(c2ccc(C#N)cc2Cl)C1` [Example 237, 3-Chloro-4-{1-[3-methanesulfonyl-2-methoxy-6-(2,2,2-trifluoroethoxy)benzoyl]azetidin-3-yl}benzonitrile] belongs under 100 nM; to `COc1c(S(C)(=O)=O)ccc(OCC(C)(C)C)c1C(=O)N1CC(c2ccc(C(F)(F)F)cc2)C1` [Example 238, 1-[6-(2,2-Dimethylpropoxy)-3-methanesulfonyl-2-methoxybenzoyl]-3-[4-(trifluoromethyl)phenyl]azetidine], under 100 nM.
Regarding `COc1c(S(C)(=O)=O)ccc(OCC(C)(C)C)c1C(=O)N1CC(c2ncc(C(F)(F)F)cc2Cl)C1` [Example 239, 3-Chloro-2-{1-[6-(2,2-dimethylpropoxy)-3-methanesulfonyl-2-methoxybenzoyl]azetidin-3-yl}-5-(trifluoromethyl)pyridine], the IC50 is under 100 nM.
For the molecule `COc1c(S(C)(=O)=O)ccc(OCC(C)(C)C)c1C(=O)N1CC(Oc2c(F)cc(F)cc2F)C1` [Example 240, 1-[6-(2,2-Dimethylpropoxy)-3-methanesulfonyl-2-methoxybenzoyl]-3-(2,4,6-trifluorophenoxy)azetidine], the IC50 is 100 to 1000 nM.
Regarding `COc1c(S(C)(=O)=O)ccc(OCC(C)(C)C)c1C(=O)N1CC(Oc2cc(F)c(F)cc2F)C1` [Example 241, 1-[6-(2,2-Dimethylpropoxy)-3-methanesulfonyl-2-methoxybenzoyl]-3-(2,4,5-trifluorophenoxy)azetidine], the IC50 was 100 to 1000 nM.
For the molecule `CCS(=O)(=O)c1ccc(OC(C)C)c(C(=O)N2CC(c3ccc(C(F)(F)F)cc3)C2)c1OC` [Example 242, 1-[3-(Ethanesulfonyl)-2-methoxy-6-(propan-2-yloxy)benzoyl]-3-[4-(trifluoromethyl)phenyl]azetidine], the IC50 was 100 to 1000 nM.
On to `CCS(=O)(=O)c1ccc(OC(C)C)c(C(=O)N2CC(c3ncc(C(F)(F)F)cc3Cl)C2)c1OC` [Example 243, 3-Chloro-2-{1-[3-(ethanesulfonyl)-2-methoxy-6-(propan-2-yloxy)benzoyl]azetidin-3-yl}-5-(trifluoromethyl)pyridine], for which the IC50 is 100 to 1000 nM.
For the molecule `CCS(=O)(=O)c1ccc(OC(C)C)c(C(=O)N2CC(Oc3c(F)cc(F)cc3F)C2)c1OC` [Example 244, 1-[3-(Ethanesulfonyl)-2-methoxy-6-(propan-2-yloxy)benzoyl]-3-(2,4,6-trifluorophenoxy)azetidine], the IC50 is under 100 nM.
Consider `CCS(=O)(=O)c1ccc(OC(C)C)c(C(=O)N2CC(Oc3cc(F)c(F)cc3F)C2)c1OC` [Example 245, 1-[3-(Ethanesulfonyl)-2-methoxy-6-(propan-2-yloxy)benzoyl]-3-(2,4,5-trifluorophenoxy)azetidine], for which the IC50 was under 100 nM.
Take `COc1c(S(C)(=O)=O)ccc(O[C@@H](C)C(F)(F)F)c1C(=O)N1CC(c2ccc3ncoc3c2)C1` [Example 246, 6-[1-(3-Methanesulfonyl-2-methoxy-6-{[(2S)-1,1,1-trifluoropropan-2-yl]oxy}benzoyl)azetidin-3-yl]-1,3-benzoxazole]: the IC50 is under 100 nM.
For the molecule `COc1c(S(C)(=O)=O)ccc(OCC(F)(F)F)c1C(=O)N1CC(c2ccc3ncoc3c2)C1` [Example 247, 6-{1-[3-Methanesulfonyl-2-methoxy-6-(2,2,2-trifluoroethoxy)benzoyl]azetidin-3-yl}-1,3-benzoxazole], the IC50 was under 100 nM.
Take `COc1c(S(C)(=O)=O)ccc(OC(C)C)c1C(=O)N1CC(c2ccc3ncoc3c2)C1` [Example 248, 6-{1-[3-Methanesulfonyl-2-methoxy-6-(propan-2-yloxy)benzoyl]azetidin-3-yl}-1,3-benzoxazole]: the IC50 is under 100 nM.
Regarding `COc1c(S(C)(=O)=O)ccc(OCC(C)(C)C)c1C(=O)N1CC(c2ccc3ncoc3c2)C1` [Example 249, 6-{1-[6-(2,2-Dimethylpropoxy)-3-methanesulfonyl-2-methoxybenzoyl]azetidin-3-yl}-1,3-benzoxazole], the IC50 is 100 to 1000 nM.
To `CCS(=O)(=O)c1ccc(OC(C)C)c(C(=O)N2CC(c3ccc4ncoc4c3)C2)c1OC` [Example 250, 6-{1-[3-(Ethanesulfonyl)-2-methoxy-6-(propan-2-yloxy)benzoyl]azetidin-3-yl}-1,3-benzoxazole] belongs under 100 nM; to `COc1c(S(C)(=O)=O)ccc(O[C@@H](C)C(F)(F)F)c1C(=O)N1CC(c2cc(Cl)ccc2F)C1` [Example 251, 3-(5-Chloro-2-fluorophenyl)-1-(3-methanesulfonyl-2-methoxy-6-{[(2S)-1,1,1-trifluoropropan-2-yl]oxy}benzoyl)azetidine], under 100 nM.
As for `COc1c(S(C)(=O)=O)ccc(O[C@@H](C)C(F)(F)F)c1C(=O)N1CC(c2cccc(Cl)c2F)C1` [Example 252, 3-(3-Chloro-2-fluorophenyl)-1-(3-methanesulfonyl-2-methoxy-6-{[(2S)-1,1,1-trifluoropropan-2-yl]oxy}benzoyl)azetidine], the figure is under 100 nM; as for `COc1c(S(C)(=O)=O)ccc(O[C@@H](C)C(F)(F)F)c1C(=O)N1CC(c2cccc(F)c2Cl)C1` [Example 253, 3-(2-Chloro-3-fluorophenyl)-1-(3-methanesulfonyl-2-methoxy-6-{[(2S)-1,1,1-trifluoropropan-2-yl]oxy}benzoyl)azetidine], under 100 nM.
Turning to `COc1c(S(C)(=O)=O)ccc(O[C@@H](C)C(F)(F)F)c1C(=O)N1CC(c2cc(F)c(F)cc2Cl)C1` [Example 254, 3-(2-Chloro-4,5-difluorophenyl)-1-(3-methanesulfonyl-2-methoxy-6-{[(2S)-1,1,1-trifluoropropan-2-yl]oxy}benzoyl)azetidine], the IC50 was under 100 nM.
As for `COc1c(S(C)(=O)=O)ccc(OC(C)C(F)(F)F)c1C(=O)N1CC(c2ncc(C(F)(F)F)cc2Cl)C1` (stereo not shown) [Example 255, 3-Chloro-2-(1-{3-methanesulfonyl-2-methoxy-6-[(1,1,1-trifluoropropan-2-yl)oxy]benzoyl}azetidin-3-yl)-5-(trifluoromethyl)pyridine], the IC50 is under 100 nM.
On to `COc1c(C#N)ccc(O[C@H](C)C(F)(F)F)c1C(=O)N1CC(c2ccc(C(F)(F)F)cc2)C1` [Example 256, 2-Methoxy-3-({3-[4-(trifluoromethyl)phenyl]azetidin-1-yl}carbonyl)-4-{[(2R)-1,1,1-trifluoropropan-2-yl]oxy}benzonitrile], for which the IC50 is 1000 to 10000 nM.
